IC50 data for 82 molecules are collected here from PubChem BioAssay AID602211 (Sanford-Burnham Center for Chemical Genomics, 2012).

Molecules are shown by their SMILES. The source made the active and inactive calls.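 How the source made its calls: active means mean IC50 at or below 10 µM; inactive means the rest.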

For this test, the system named is H9c2 cardiomyocytes, H2O2 protection, ATPLite viability, 2 h. Briefly: H2O2-induced H9c2 cell death suppression – ATPLite luminescence, set 2, dose response (AID 602211;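 further: potency is for protection so actives keep ATP signal up against peroxide killing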). (ATP-based viability assays read luminescence as a measure of living cells.)
For `Fc1ccc(-n2cc(-c3ccccc3)c3c(N4CCOCC4)ncnc32)cc1`, the IC50 was 6.27 µM.

On to `CC(=O)Nc1cccc(-c2cc(NC(C)=O)c3ncc(-c4cccc(C(C)=O)c4)n3c2)c1`, for which the IC50 was 38.4 µM (inactive).

With `O=C(c1ccc(-c2nc3ccccc3s2)o1)N1CCN(c2ccccc2O)CC1`, the IC50 was 5.48 µM.

On to `Cc1cc(NC(=O)C2CCCCC2)nc2c1c(=O)oc1ccccc12`, for which the IC50 was 23.7 µM (inactive).

Consider `CC(C)(C)OC(=O)C[C@H]1C/C=C\C[C@H](CC(=O)N[C@H](CO)Cc2ccccc2)C(=O)N[C@H](Cc2ccccc2)COC1=O`, for which the IC50 is 6.31 µM.

For the molecule `O=C(NCc1ccco1)c1cc(-c2cccnc2)nc2ccc(Cl)cc12`, the IC50 was 4.95 µM.

Regarding `N#Cc1c(-c2ccco2)cc(-c2ccccn2)nc1N`, the IC50 is 28.5 µM (inactive).

On to `COc1ccc(N(CC(=O)N/N=C/c2cccs2)S(=O)(=O)c2ccc(OC)c(OC)c2)cc1`, for which the IC50 is 10.3 µM (inactive).

For `CC(C)(C)OC(=O)N1CCC(NC(=O)c2nc[nH]c2C(=O)NCC(=O)OCc2ccccc2)CC1`, the IC50 is 1.08 µM.

Take `COc1cc(-c2cc(NC=O)c3ncc(-c4ccccc4)n3c2)cc(OC)c1OC`: the IC50 was > 79 µM (inactive).

On to `CCOC(=O)N1CCN(C(=O)CSc2nc3c(cnn3-c3ccc(C)cc3)c(=O)[nH]2)CC1`, for which the IC50 was 2.14 µM.

Consider `CC(=O)c1ccc(-c2cnc3c(NC=O)cc(-c4cccc(C(=O)N(C)C)c4)cn23)cc1`, for which the IC50 is 18.9 µM (inactive).

In the case of `COc1cc(NC(=O)c2ccco2)c(OC)cc1NC(=O)c1cc(OC)c(OC)c(OC)c1`, the IC50 was 11.3 µM (inactive).

As to `O=C(N/N=C/c1ccccn1)c1[nH]c2ccc([N+](=O)[O-])cc2c1-c1ccccc1`, the IC50 was 2.33 µM.

Consider `COc1ccc(-c2cc(-c3nnc(COC(=O)c4ccncc4)o3)c3ccccc3n2)cc1OC`, for which the IC50 is 5.89 µM.

In the case of `CC12CCC3C(CCC4CC(O)CCC43C)C1CC(O)C2` (configuration not stated), the IC50 is 3.41 µM.

`COc1ccc(-c2cc(NC(C)=O)c3ncc(-c4ccc(OC)c(OC)c4)n3c2)cc1OC`: the IC50 is > 79 µM (inactive).

Take `CN(C)S(=O)(=O)c1ccc2[nH]cc(/C=C/c3nc4ccccc4c(=O)n3-c3ccccc3)c2c1`: the IC50 is 1.26 µM.

For the molecule `O=c1oc2ccc3ccccc3c2cc1-c1nnc(-c2ccccc2)o1`, the IC50 is 17.5 µM (inactive).

`Cc1cc(C)c(S(=O)(=O)N2CCN(C(=O)c3cc(=O)[nH]c4ccccc34)CC2)c(C)c1`: the IC50 is 2.94 µM.

Regarding `COc1ccc(-c2oc3c(OC)c(OC)c(OC)c(O)c3c(=O)c2OC)cc1OC`, the IC50 was 12.1 µM (inactive).

On to `Cn1c(=O)n(CCc2ccccc2)c(=O)c2c1nc1n2CCN1Cc1ccco1`, for which the IC50 is > 79 µM (inactive).

`Cc1ccccc1C(C(=O)NCc1ccccc1)N(Cc1ccco1)C(=O)c1ccccn1` (configuration not stated): the IC50 is > 79 µM (inactive).

As to `CSc1nc2ncc3c(n2n1)CC1c2ccccc2CCN1C3=O` (configuration not stated), the IC50 is 23 µM (inactive).

`COc1cc(NC(=O)c2cccc3c(-c4cnn(C)c4)coc23)cc(OC)c1OC`: the IC50 is 1.56 µM.

In the case of `CC(=O)NCc1ccc(-c2csc(NC(=O)CCc3nc4ccccc4c(=O)[nH]3)n2)s1`, the IC50 was 4.3 µM.

On to `O=C(Nc1nc(-c2cc(F)ccc2F)cs1)C1=NN(c2ccccc2)C(=O)CC1`, for which the IC50 is 6.26 µM.

For the molecule `CCOc1cc(/C=C(\C#N)C(=O)Nc2ccc(S(N)(=O)=O)cc2)ccc1OCCN1CCOCC1`, the IC50 was 8.4 µM.

Turning to `Cc1ncc(CO)c2c1Oc1nc(-c3ccccc3)nc(SCC(=O)N3CCCCC3)c1C2`, the IC50 is > 79 µM (inactive).

On to `COCCNC(=O)COC(=O)c1ccc(OCC(=O)Nc2ccccc2OC)c(OC)c1`, for which the IC50 is 20.4 µM (inactive).

In the case of `COc1ccc(CCn2c(=N)c(C(=O)NCC3CCCO3)cc3c(=O)n4cccc(C)c4nc32)cc1OC` (configuration not stated), the IC50 is 2.6 µM.

As to `CCOC(=O)C1=C(COC(=O)c2cc(OC)c(OC)c(OC)c2)NC(=O)NC1C` (configuration not stated), the IC50 was 5.68 µM.

Take `COc1ccccc1OCC(=O)N/N=C/c1cccc2cccnc12`: the IC50 was 14.1 µM (inactive).

As to `Cc1ccc(NC(=O)c2nc[nH]c2C(=O)NCCCNC(=O)c2[nH]cnc2C(=O)Nc2ccc(C)cc2)cc1`, the IC50 was 1.1 µM.

Turning to `COc1cc(C(=O)N/N=C/c2ccc(OC(=O)c3ccccc3Cl)cc2)ccc1O`, the IC50 was > 79 µM (inactive).

In the case of `COc1cc(/C=N\NC(=O)c2cccnc2)ccc1OC(=O)c1ccccc1Cl`, the IC50 is 30 µM (inactive).

For the molecule `C[C@H](NC(=O)c1nc[nH]c1C(=O)NCC(=O)OCc1ccccc1)c1ccccc1`, the IC50 is 1.6 µM.

For the molecule `CCOC(=O)c1c(C)[nH]c(C)c1C(=O)COc1ncnc2cc([N+](=O)[O-])ccc12`, the IC50 is 11.1 µM (inactive).

On to `O=C(COC(=O)c1cc(-c2cccnc2)nc2ccccc12)Nc1ccc(F)cc1F`, for which the IC50 is 17.8 µM (inactive).

As for `COc1ccc(CCCNC(=O)C2(C)Cc3c(-c4ccc(NC(C)=O)cc4)ccnc3O2)cc1` (configuration not stated), the IC50 is > 79 µM (inactive).

For the molecule `CC(C)N1C(=O)S/C(=C/c2ccc3c(c2)n(C)c(=O)n3C)C1=O`, the IC50 was 1.71 µM.

Take `CCOc1ccc(-n2cc(-c3ccccc3)c3c(N4CCOCC4)ncnc32)cc1`: the IC50 was 6.61 µM.

`C=CC[C@@H](CC(=O)N[C@H](CO)Cc1ccccc1)C(=O)N[C@@H](COC(=O)[C@@H](CC=C)CC(=O)OC(C)(C)C)Cc1ccccc1`: the IC50 is 12.3 µM (inactive).

Consider `COc1cc(-c2cc(NC(C)=O)c3ncc(-c4ccccc4)n3c2)cc(OC)c1OC`, for which the IC50 was 6.75 µM.

Take `CC(=O)Nc1ccc(Nc2nc(-c3sc(NC(C)=O)nc3C)cs2)cc1`: the IC50 was 12.2 µM (inactive).

For the molecule `CNC(=O)COC(=O)/C=C/c1cn(-c2ccccc2)nc1-c1ccc(C)o1`, the IC50 is 6.31 µM.

On to `NC(=O)c1nsc(C(=O)N(c2ccccc2)C(C(=O)NCc2ccc(F)cc2)c2ccc(O)cc2)c1N` (configuration not stated), for which the IC50 was 1.98 µM.

As to `NS(=O)(=O)c1ccc(CCNC(=O)c2ccc(C#CC3(O)CCCCC3)cc2)cc1`, the IC50 is > 79 µM (inactive).

Turning to `CC(=O)c1cccc(-c2cnc3c(NC=O)cc(-c4ccccc4F)cn23)c1`, the IC50 was 7.66 µM.

Regarding `CCOc1ccc(C(C(=O)NC2CCCC2)N(C(=O)c2snc(C(N)=O)c2N)c2cccc(O)c2)cc1` (configuration not stated), the IC50 is 3.28 µM.

For `COc1ccccc1-c1cc(NC=O)c2ncc(-c3cccc(C(C)=O)c3)n2c1`, the IC50 is 8.53 µM.

With `O=C(c1cc2nc(-c3ccccc3)cc(-c3ccccc3)n2n1)N1CCN(C(=O)c2ccco2)CC1`, the IC50 was 1.25 µM.

Turning to `CCOc1ccc2ccccc2c1C(=O)N[C@@H]1C(=O)N2[C@@H]1SC(C)(C)[C@@H]2C(=O)O`, the IC50 is 24.4 µM (inactive).

With `CCOC(=O)C1=C(COC(=O)/C=C/c2ccc(F)cc2)NC(=O)NC1C` (configuration not stated), the IC50 was 5.54 µM.

With `COc1cc2c(cc1OC)CN(c1nc(-c3cccnc3)nc3ccccc13)CC2`, the IC50 was 2.93 µM.

As to `Cn1c(=O)[nH]c(=O)c2c1nc(Br)n2CC(O)COc1ccc(Cl)cc1` (configuration not stated), the IC50 was 2.44 µM.

Regarding `NC(=O)c1nsc(C(=O)N(Cc2ccco2)C(C(=O)NCc2ccccc2)c2ccc(O)cc2)c1N` (configuration not stated), the IC50 is 9.87 µM.

Consider `CS(=O)(=O)Nc1cccc(NC(=O)c2cccc3c(-c4cccc(C(N)=O)c4)coc23)c1`, for which the IC50 is 3.61 µM.

Turning to `CCOC(=O)C(Cc1ccc(NC(=O)/C(=C/c2ccc(OC(C)=O)cc2)NC(C)=O)cc1)N1C(=O)c2ccccc2C1=O` (configuration not stated), the IC50 is 2.78 µM.

Regarding `CC1(C)CC(=O)C2=C(C1)N(CCN1CCOCC1)C1=C(C(=O)CC(C)(C)C1)C2c1ccc(Cl)cc1`, the IC50 is 9.75 µM.

Take `COc1cccc(Nc2nc(-c3sc(NC(=O)c4ccco4)nc3C)cs2)c1`: the IC50 was 7.15 µM.

Take `CCOC(=O)C1CCN(c2cc3c(cc2NC(=O)c2ccccc2)n(C)c(=O)n3C)CC1`: the IC50 was 5.18 µM.

Take `COc1cc(-c2cc3nc(NCCOc4ccccc4)ccn3n2)cc(OC)c1OC`: the IC50 was 7.16 µM.

As to `COc1cc(NC(=O)c2csc(-c3ccncc3)n2)cc(C(=O)Nc2cccc(C(F)(F)F)c2)c1`, the IC50 is 2.7 µM.

As for `COc1ccc(-c2cc(C(=O)NC(C)c3ccccn3)c3ccccc3n2)cc1OC` (configuration not stated), the IC50 is 5.39 µM.

Regarding `NC(=O)c1nsc(C(=O)N(c2ccccc2F)C(C(=O)NCc2ccc(F)cc2)c2ccc(O)cc2)c1N` (configuration not stated), the IC50 was 0.94 µM.

In the case of `COc1ccc(-c2cc(C(F)(F)F)n3nc(C(=O)N4CCN(C(=O)c5ccco5)CC4)cc3n2)cc1`, the IC50 was 9.56 µM.

Turning to `CS(=O)(=O)c1ccc(-c2cnc3c(NC=O)cc(-c4ccsc4)cn23)cc1`, the IC50 was 12.5 µM (inactive).

Take `CCOC(=O)c1ccc(-c2ccc(/C=C(\C#N)C(=O)NCC3CCCO3)o2)cc1` (configuration not stated): the IC50 is > 79 µM (inactive).

Regarding `Cc1ccc2nsnc2c1S(=O)(=O)N(Cc1ccco1)Cc1cc2cccc(C)c2[nH]c1=O`, the IC50 is 13.2 µM (inactive).

In the case of `COc1ccc2occ(C(=O)c3coc4ccc(O)c(CN(C)C)c34)c2c1`, the IC50 is 4.32 µM.

As for `CCOC(=O)N1CCC(n2c(SCC(=O)N3CCC(C)CC3)nc3ccccc3c2=O)CC1`, the IC50 was > 79 µM (inactive).

Take `COc1ccc(/C=N/NC(=O)c2cc(-c3ccc4c(c3)OCO4)n[nH]2)cc1OC`: the IC50 was 7.49 µM.

Regarding `O=C(NC1CCCCC1)C(c1ccc2ncccc2c1)N(Cc1ccco1)C(=O)c1ccc2c(c1)OCCO2` (configuration not stated), the IC50 was 10.8 µM (inactive).

In the case of `CCN(CC)S(=O)(=O)c1ccc(Nc2nc3ccccc3n3nnnc23)cc1`, the IC50 was 4.92 µM.

For the molecule `CC(C)(C)OC(=O)C[C@@H]1C/C=C\C[C@@H](CC(=O)N[C@@H](CO)Cc2ccccc2)C(=O)NC[C@@H](c2ccccc2)OC1=O`, the IC50 was 12.9 µM (inactive).

Regarding `COC(=O)c1ccccc1NC(=O)c1nc2nc(C)cc(C)n2n1`, the IC50 was 31.2 µM (inactive).

Consider `CCc1nnc(NC(=O)CCC(=O)N2CCN(C3c4ccccc4-c4ccccc43)CC2)s1`, for which the IC50 was 12.9 µM (inactive).

As for `COc1cc(NC(=O)c2cc3c(C)nc4ccccc4c3o2)cc(OC)c1OC`, the IC50 was 3.36 µM.

For the molecule `CCc1nc(N2CCN(C(=O)c3ccco3)CC2)c2oc3ccccc3c2n1`, the IC50 is > 79 µM (inactive).

Turning to `Cc1cccc(NC(=O)c2nc[nH]c2C(=O)NCCCCNC(=O)c2[nH]cnc2C(=O)Nc2cccc(C)c2)c1`, the IC50 was 1.39 µM.

In the case of `CC(=NO)C1CCC2C3CCC4CC(=NO)CCC4(C)C3C(C)(O)CC12C` (configuration not stated), the IC50 is > 79 µM (inactive).

For orientation: IC50 means the concentration at which inhibition is half-maximal.
